Here are results for 40 molecules from patent US6221865A, “Inhibitors of protein isoprenyl transferases” (priority 1998, dated 2001).

The target of this assay is T1, protein farnesyltransferase (Rattus norvegicus, UniProt Q02293+Q04631).
T1 construct: The enzyme is purified according to Reiss, Y., et al., Cell, 62: 81-88 (1990), utilizing steps one through three; from tissue; host or cells: rat brain
The assay is described as follows: Inhibition of farnesyltransferase (scintillation proximity assay, rat brain enzyme, biotin-K Ras B fragment substrate). It is filed as biochemical. To be noted: for % inhibition of farnesyltransferase at 1 × 10^-8 M: 1 × 10^-8 M (Table 4); for inhibition at 1 µM: read-out: % inhibition of farnesyltransferase at 1 × 10^-6 M; for inhibition at 1 µM / % inhibition of farnesyltransferase at 1 × 10^-6 M: 1 × 10^-6 M (Table 2); for % inhibition of farnesyltransferase at 1 × 10^-5 M: 1 × 10^-5 M (Table 1). In a few lines:
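Enzyme from rat brain, partly purified (steps one to three), assayed by SPA kit using 0.1 mM final biotin-K Ras B peptide as prenyl acceptor rather than biotin-lamin. Activity given as percent inhibition.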
In general terms: SPA uses beads or plates that emit light when radiolabelled molecules are held near them.

SMILES strings stand for the structures. Where a name gives a salt, the structure may show the parent alone.

T1 sequence (Q02293 whole entry, one chain of several): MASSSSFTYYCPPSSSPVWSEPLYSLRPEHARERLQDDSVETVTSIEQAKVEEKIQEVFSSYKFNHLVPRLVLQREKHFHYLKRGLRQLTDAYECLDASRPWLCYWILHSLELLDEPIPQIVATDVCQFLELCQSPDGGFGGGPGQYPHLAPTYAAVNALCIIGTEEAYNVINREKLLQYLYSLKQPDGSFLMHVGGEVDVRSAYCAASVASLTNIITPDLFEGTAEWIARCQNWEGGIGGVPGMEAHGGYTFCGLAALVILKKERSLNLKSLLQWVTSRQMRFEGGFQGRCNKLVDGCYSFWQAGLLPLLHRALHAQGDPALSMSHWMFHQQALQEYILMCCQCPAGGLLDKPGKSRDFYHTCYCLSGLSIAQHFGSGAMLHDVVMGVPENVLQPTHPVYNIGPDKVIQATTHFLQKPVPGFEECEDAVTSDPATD

On to `COc1ccc(N(Cc2ccccc2)Cc2ccc(C(=O)N[C@@H](CCSC)C(=O)O)c(-c3ccccc3C)c2)cc1` [Example 840], for which the “% inhibition of farnesyltransferase at 1 × 10^-8 M” value (“% inhibition … at 1 × 10^-8 M” below) is 73%. Regarding `CSCC[C@H](NC(=O)c1ccc(C=Cc2ccccc2Oc2ccccc2)cc1-c1ccccc1C)C(=O)O` [Example 453, N-[4-(2-(2-phenoxyphenyl)ethen-1-yl)-2-(2-methylphenyl)benzoyl]methionine lithium salt], the inhibition (in general, the percentage by which the read-out fell short of the control) at 1 µM came out at 90%. Turning to `CSCC[C@H](NC(=O)c1ccc(CN(Cc2ccccc2)c2ccc(Cl)cc2)cc1-c1ccccc1C)C(=O)O` [Example 848], the “% inhibition … at 1 × 10^-8 M” value was found to be 87%. For `CSCC[C@H](NC(=O)c1ccc(COCc2ccc(-c3ccc(C(C)=O)cc3)o2)cc1-c1ccccc1C)C(=O)[O-].[Li+]` [Example 449], the “% inhibition of farnesyltransferase at 1 × 10^-7 M” value (“% inhibition … at 1 × 10^-7 M” for short) (1 × 10^-7 M (Table 3)) is reported as 91%. In the case of `CSCC[C@H](NC(=O)c1ccc(CNc2cccc(CO)c2)cc1-c1ccccc1)C(=O)O` [Example 680], the “% inhibition of farnesyltransferase at 1 × 10^-5 M” value is 58%. As for `CSCC[C@H](NC(=O)c1ccc(CN(Cc2ccccc2)Cc2cccc(Oc3ccccc3)c2)cc1-c1ccccc1C)C(=O)O` [Example 514], the “% inhibition of farnesyltransferase at 1 × 10^-6 M” value (“% inhibition … at 1 × 10^-6 M” below) is 94%. Consider `CNCC(=O)Nc1ccc(C(=O)N[C@@H](CCSC)C(=O)O)c(-c2ccccc2)c1` [Example 749], for which the “% inhibition … at 1 × 10^-6 M” value was 84%. As for `CSCC[C@H](NC(=O)c1ccc(COCc2cccc(Cl)c2)cc1-c1ccccc1C)C(=O)[O-].[Li+]` [Example 934], the “% inhibition … at 1 × 10^-8 M” value was 71%.

Regarding `CSCC[C@H](NC(=O)c1ccc(CSCCc2ccccc2)cc1-c1ccccc1C)C(=O)[O-].[Li+]` [Example 562], under “1 × 10^-7 M (Table 3)”, the “% inhibition … at 1 × 10^-7 M” value turned out to be 95%.

In the case of `CSCC[C@H](NC(=O)c1ccc(CSc2nc3ccccc3[nH]2)cc1-c1ccccc1C)C(=O)O` [Example 732], the “% inhibition … at 1 × 10^-7 M” value (1 × 10^-7 M (Table 3)) is listed as 84%.

For `CSCC[C@H](NC(=O)c1ccc(CNc2cccc(I)c2)cc1-c1ccccc1)C(=O)O` [Example 677], the “% inhibition … at 1 × 10^-6 M” value is recorded as 37%. With `CSCC[C@H](NC(=O)c1ccc(OC/C=C(\C)CCC=C(C)C)cc1-c1ccccc1C)C(=O)O` [Example 546], the “% inhibition … at 1 × 10^-6 M” value is 97%. With `CSCC[C@H](NC(=O)c1ccc(CN[C@@H](CC2CCCCC2)[C@@H](O)[C@@H](O)CC(C)C)cc1-c1ccccc1)C(=O)O` [Example 716], the “% inhibition … at 1 × 10^-6 M” value was 69%. Same read-out and setting: as for `CSCC[C@H](NC(=O)c1ccc(CN(Cc2ccccc2)c2ccccc2C(C)=O)cc1-c1ccccc1C)C(=O)O` [Example 844], the figure is 92%; as for `CSCC[C@H](NC(=O)c1ccc(CN(Cc2ccoc2)C(C)C)cc1-c1ccccc1C)C(=O)O` [Example 832], 80%.

For the molecule `CSCC[C@H](NC(=O)c1ccc(CSCc2ccccc2)cc1-c1ccccc1C)C(=O)[O-].[Li+]` [Example 554], the “% inhibition … at 1 × 10^-6 M” value was 96%. For `CSCC[C@H](NC(=O)c1ccc(COCc2ccccc2C(C)C)cc1-c1ccccc1C)C(=O)[O-].[Li+]` [Example 938], the “% inhibition … at 1 × 10^-8 M” value came to 61%. As for `CSCCC(NC(=O)c1ccc(CNC(CO)c2ccccc2)cc1-c1ccccc1)C(=O)O` (stereo not shown) [Example 658], the “% inhibition … at 1 × 10^-6 M” value turned out to be 73%. With `CSCC[C@H](NC(=O)c1ccc(COc2cccc3ccccc23)cc1-c1ccccc1C)C(=O)O` [Example 574], the “% inhibition … at 1 × 10^-7 M” value (1 × 10^-7 M (Table 3)) was determined as 81%. For the molecule `CSCC[C@H](NC(=O)c1ccc(COCCc2ccc(-c3ccc(Cl)cc3)o2)cc1-c1ccccc1C)C(=O)[O-].[Li+]` [Example 536], under “1 × 10^-7 M (Table 3)”, the “% inhibition … at 1 × 10^-7 M” value was 79%.

Take `CSCC[C@H](NC(=O)c1ccc(CN(C2CC2)C2(Cc3ccccc3)CC2)cc1-c1ccccc1C)C(=O)O` [Example 323]: the inhibition at 1 µM is 98%. For the molecule `CSCC[C@H](NC(=O)c1ccc(COCc2ccc3ccccc3c2)cc1-c1ccccc1C)C(=O)[O-].[Li+]` [Example 583], the “% inhibition … at 1 × 10^-6 M” value was found to be 98%. With `CSCC[C@H](NC(=O)c1ccc(CNc2ccccc2CCO)cc1-c1ccccc1)C(=O)O` [Example 671], the “% inhibition … at 1 × 10^-6 M” value is 36%. With `CSCC[C@H](NC(=O)c1ccc(CSc2ccc(F)cc2)cc1-c1ccccc1C)C(=O)O` [Example 740], for the setting “1 × 10^-7 M (Table 3)”, the “% inhibition … at 1 × 10^-7 M” value came to 94%. For the molecule `CSCC[C@H](NC(=O)c1ccc(CCc2ccc(Oc3ccccc3)cc2)cc1-c1ccccc1C)C(=O)O` [Example 462, N-[4-(2-(4-phenoxyphenyl)ethyl)-2-(2-methylphenyl)benzoyl]methionine lithium salt], the inhibition at 0.1 µM (read-out: % inhibition of farnesyltransferase at 1 × 10^-7 M, 1 × 10^-7 M (Table 3)) amounted to 91%. For `CCOC(=O)c1ccc(NCc2ccc(C(=O)N[C@@H](CCSC)C(=O)O)c(-c3ccccc3)c2)cc1` [Example 646], the “% inhibition … at 1 × 10^-6 M” value stood at 58%. The same measure, in the same setting: then `CSCC[C@H](NC(=O)c1ccc(CNCc2ccccc2)cc1-c1ccccc1)C(=O)O.Cl` [Example 936], with 69%. `COc1ccccc1N(Cc1ccccc1)Cc1ccc(C(=O)N[C@@H](CCSC)C(=O)O)c(-c2ccccc2C)c1` [Example 839]: where the note is “1 × 10^-7 M (Table 3)”, the “% inhibition … at 1 × 10^-7 M” value is listed as 63%. Turning to `CSCC[C@H](NC(=O)c1ccc(CN(Cc2ccccc2)c2cccc([N+](=O)[O-])c2)cc1-c1ccccc1C)C(=O)[O-].[Li+]` [Example 842], the “% inhibition … at 1 × 10^-8 M” value was determined as 88%. On to `COCCN(CCC1CCCCC1)Cc1ccc(C(=O)N[C@@H](CCSC)C(=O)O)c(-c2ccccc2C)c1` [Example 1104], for which the % inhibition (in general, the percentage by which the read-out fell short of the control) at 0.01 μM (**) (Table 6, ** = 0.01 μM (footnote), title prints 0.01 mM) is given as 89%. On to `CSCC[C@H](NC(=O)c1ccc(CN(C)C(CC2CCCCC2)CC2CCCCC2)cc1-c1ccccc1C)C(=O)O` [Example 907], for which the “% inhibition … at 1 × 10^-8 M” value is 79%. On to `CSCC[C@H](NC(=O)c1ccc(CN(Cc2ccccc2)c2cccc(SC)c2)cc1-c1ccccc1C)C(=O)[O-].[Li+]` [Example 851], for which the “% inhibition … at 1 × 10^-8 M” value is listed as 82%. On to `CCCCN(C)N(CCC1CCCCC1)Cc1ccc(C(=O)N[C@@H](CCS(C)(=O)=O)C(=O)O)c(-c2ccccc2C)c1` [Example 300], for which the inhibition at 1 µM is 22%. With `CSCC[C@H](NC(=O)c1ccc(COCCc2cccc3ccccc23)cc1-c1ccccc1C)C(=O)[O-].[Li+]` [Example 592], the “% inhibition … at 1 × 10^-7 M” value (1 × 10^-7 M (Table 3)) amounted to 93%. Same read-out and setting: as for `CCCCN(CCCC)Cc1ccc(C(=O)N[C@@H](CCSC)C(=O)O)c(-c2ccccc2C)c1` [Example 917], the figure is 78%; as for `CSCC[C@H](NC(=O)c1ccc(COCc2cnco2)cc1-c1ccccc1C)C(=O)[O-].[Li+]` [Example 891], 94%. With `CSCC[C@H](NC(=O)c1ccc(NC(=O)Cc2ccc(C)cc2)cc1-c1ccccc1C)C(=O)O` [Example 541], the “% inhibition … at 1 × 10^-6 M” value is on record as 37%. In the case of `CCCCS(=O)(=O)N(CCC1CCCCC1)Cc1ccc(C(=O)N[C@@H](CCSC)C(=O)O)c(-c2ccccc2C)c1` [Example 916], the “% inhibition … at 1 × 10^-8 M” value is 96%. `CSCC[C@H](NC(=O)c1ccc(COCc2ccc(C)o2)cc1-c1ccccc1C)C(=O)O` [Example 532]: under “1 × 10^-7 M (Table 3)”, the “% inhibition … at 1 × 10^-7 M” value was 88%. As for `CSCC[C@H](NC(=O)c1ccc(NC(=O)[C@@H]2C[C@@H](O)CN2)cc1-c1ccccc1)C(=O)O` [Example 952], the “% inhibition of farnesyltransferase at 1 × 10^-5 M” value is given as above 50%.
